Data taken from US10611729B2, “Farnesoid X receptor antagonists” (City of Hope, priority 2014, dated 2020).

Legend:
FXR [1] = target: T1, FXR (Homo sapiens, UniProt Q96RI1); test: FXR TR-FRET binding assay (DY246 fluorescent probe); details: for inhibition at 0.164 µM: at 164 nM; for IC50: mean ± SE
T1 sequence (Q96RI1 262-486 limits assumed): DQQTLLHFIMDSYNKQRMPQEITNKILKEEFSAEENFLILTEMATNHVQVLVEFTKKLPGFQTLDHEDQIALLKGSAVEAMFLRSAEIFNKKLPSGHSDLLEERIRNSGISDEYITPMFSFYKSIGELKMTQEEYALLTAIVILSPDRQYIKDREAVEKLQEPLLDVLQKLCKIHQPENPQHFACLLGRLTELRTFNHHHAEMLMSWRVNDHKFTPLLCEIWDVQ
Experimental: The FXR TR-FRET binding assay was performed as previously described^23 with modifications. […] The plate was spun down after a brief shake and incubated at room temperature for 20 min. The TR-FRET emission signals at 520 nm and 490 nm for each well was then collected using a PHERAstar plate reader (BMG LABTECH, Cary, N.C.) with an excitation wavelength of 337 nm, 100-μs delay time, and 200-μs integration time. The 520 nm/490 nm ratio from each well was then calculated. […] The % inhibition of tested chemicals at given concentration was calculated based on negative and positive controls using equation 1.

FXR [2] = target: T1, FXR; test: GeneBLAzer FXR cell-based antagonistic assay (in presence of 400 nM GW4064); design: the Gal4 DBD was fused to the LBD of FXR in this assay; host or cells: GeneBLAzer FXR-UAS-bla HEK 293T cells; details: for inhibition at 40 µM: read-out: GB FXR Cell Anta. % Inh.; for IC50: with 400 nM GW4064, read-out: GB FXR Cell Anta. IC50
Experimental: A GeneBLAzer FXR cell-based assay was used to investigate the cellular activities of the 1,3,4-trisubstituted-pyrazol-4-carboxamide analogs. The assay detects the levels of a […] reporter controlled by a promoter containing the binding site of the DNA binding domain (DBD) of the GAL4 transcription factor; the Gal4 DBD was fused to the LBD of FXR in this assay.^35
FXR transactivation assays were performed using GeneBLAzer FXR-UAS-bla HEK 293T cells (Invitrogen). Cells were maintained according to the manufacturer's instructions. […] Plates were then incubated in dark for 90 min at room temperature before measuring the fluorescent emissions at 460 nm and 535 nm (using excitation at 400 nm) with an Envision plate reader with bottom read capacity. After background signal subtraction for individual emission channels, emission signals at 460 and 535 nm from each well were used to determine the ratio of 460 nm/535 nm. […] The % activation was calculated using equation 2.
The % inhibition was calculated using equation 3.

[3] = read-out: FXR TR-FRET Binding % Inh.

inhibition at 0.164 µM (FXR [1]; [3])	IC50 (FXR [1])	inhibition at 40 µM (FXR [2])	IC50 (FXR [2])	inhibition at 4.4 µM (FXR [1]; [3])	FXR antagonistic activity, SAR statement in words (FXR [2])	fold decrease of activity for hFXR compared to Z26476908 (FXR [1])	inhibition at 1.5 µM (FXR [1]; at 1.5 μM, read-out: FXR TR-FRET Binding % Inh.)	inhibition at 0.493 µM (FXR [1]; at 493 nM, read-out: FXR TR-FRET Binding % Inh.)	inhibition at 40 µM (FXR [1]; at 40 μM, read-out: FXR TR-FRET Binding % Inh.)	inhibition at 13.3 µM (FXR [1]; at 13.3 μM, read-out: FXR TR-FRET Binding % Inh.)	SMILES
99.3 ± 1.1%	10.4 ± 0.9 nM	60.6 ± 0.9%	5910 ± 150 nM	–	–	–	–	–	–	–	Cc1ccc(-c2nn(-c3cccc(Cl)c3)cc2C(=O)Nc2ccc(C)c(S(=O)(=O)N3CCOCC3)c2)cc1 [Compound 4b, 1-(3-Chlorophenyl)-N-(4-methyl-3-(morpholinosulfonyl)phenyl)-3-(p-tolyl)-1H-pyrazole-4-carboxamide]
120 ± 7.8%	14.1 ± 0.3 nM	89.9 ± 1.9%	1240 ± 120 nM	–	–	–	–	–	–	–	Cc1ccc(-c2nn(-c3ccc(Cl)cc3Cl)cc2C(=O)Nc2ccc(C)c(S(=O)(=O)N3CCOCC3)c2)cc1 [Compound 4c, 1-(2,4-Dichlorophenyl)-N-(4-methyl-3-(morpholinosulfonyl)phenyl)-3-(p-tolyl)-1H-pyrazole-4-carboxamide]
–	49.1 ± 9.9 nM	99.1 ± 4.4%	1690 ± 180 nM	131 ± 3.8%	retention of the antagonistic activity	–	–	–	–	–	Cc1ccc(-c2nn(C(C)C)cc2C(=O)Nc2ccc(C)c(S(=O)(=O)N3CCOCC3)c2)cc1 [Compound 4f, 1-Isopropyl-N-(4-methyl-3-(morpholinosulfonyl)phenyl)-3-(p-tolyl)-1H-pyrazole-4-carboxamide]
–	76.9 ± 2.7 nM	100 ± 3.2%	849 ± 69 nM	–	–	2 fold	105 ± 4.9%	–	–	–	Cc1ccc(-c2nn(CC3CC3)cc2C(=O)Nc2ccc(C)c(S(=O)(=O)N3CCOCC3)c2)cc1 [Compound 4i, 1-(Cyclopropylmethyl)-N-(4-methyl-3-(morpholinosulfonyl)phenyl)-3-(p-tolyl)-1H-pyrazole-4-carboxamide]
99.2 ± 6.4%	18.4 ± 1.2 nM	93.4 ± 3.9%	515 ± 25.4 nM	–	–	–	–	–	–	–	Cc1ccc(-c2nn(Cc3cccc(C(F)(F)F)c3)cc2C(=O)Nc2ccc(C)c(S(=O)(=O)N3CCOCC3)c2)cc1 [Compound 4k, N-(4-methyl-3-(morpholinosulfonyl)phenyl)-3-(p-tolyl)-1-(3-(trifluoromethyl)benzyl)-1H-pyrazole-4-carboxamide]
–	199 ± 21.2 nM	99.2 ± 2.7%	3110 ± 580 nM	101 ± 5.6%	decreased the potency and affinity	–	–	–	–	–	COc1cccc(Cn2cc(C(=O)Nc3ccc(C)c(S(=O)(=O)N4CCOCC4)c3)c(C(C)C)n2)c1 [Compound 4m, 3-Isopropyl-1-(3-methoxybenzyl)-N-(4-methyl-3-(morpholinosulfonyl)phenyl)-1H-pyrazole-4-carboxamide]
–	42.8 ± 0.5 nM	89.4 ± 4.2%	1240 ± 90 nM	–	slightly decreased antagonistic activity	–	–	114 ± 3.3%	–	–	COc1cccc(Cn2cc(C(=O)Nc3ccc(C)c(S(=O)(=O)N4CCOCC4)c3)c(-c3cccc(OC)c3)n2)c1 [Compound 4o, 1-(3-Methoxybenzyl)-3-(3-methoxyphenyl)-N-(4-methyl-3-(morpholinosulfonyl)phenyl)-1H-pyrazole-4-carboxamide]
109 ± 3.6%	30.9 ± 3.6 nM	97.6 ± 0.9%	592.7 ± 3 nM	–	–	–	–	–	–	–	COc1cccc(Cn2cc(C(=O)Nc3ccc(C)c(S(=O)(=O)N4CCOCC4)c3)c(-c3ccc(C(F)(F)F)cc3)n2)c1 [Compound 4q, 1-(3-Methoxybenzyl)-N-(4-methyl-3-(morpholinosulfonyl)phenyl)-3-(4-(trifluoromethyl)phenyl)-1H-pyrazole-4-carboxamide]
–	3420 ± 190 nM	62.5 ± 0.8%	29600 ± 1750 nM	–	loss of potency	–	–	–	98.2 ± 3.8%	–	COCCc1nn(C(C)C)cc1C(=O)Nc1ccc(C)c(S(=O)(=O)N2CCOCC2)c1 [Compound 4r]
–	390 ± 9.4 nM	95.9 ± 2.4%	11100 ± 640 nM	–	loss of potency	–	–	–	–	113.5 ± 0.8%	COCCc1nn(Cc2cccc(OC)c2)cc1C(=O)Nc1ccc(C)c(S(=O)(=O)N2CCOCC2)c1 [Compound 4s]
